Laboratory results published in article PMC9321647, “Curcumin-Based β-Diketo Ligands for Ga^3+: Thermodynamic Investigation of Potential Metal-Based Drugs” (Pharmaceuticals, 2022).
Read-outs that look alike come from different tables or passages of the source. Blank lines part the entries; values can stand above or below the compound they belong to.

Key:
[1] = Kinetic stability of ligands in simulated physiological conditions (UV-Vis); format: physicochemical
Protocol: The chemical stability of ligands and metal complexes at the M:L 1:L molar ratio at 37 °C in darkness was evaluated by UV−Vis spectroscopy as a change in absorbance in the 250−600 nm range over an overall period of 8 h. Solutions (5.0 × 10^–5 mol L^–1) of the ligands were prepared in 0.1 mol L^–1 phosphate-buffered solution (PBS) at pH 7.4. Spectra were recorded every 30 min. All profiles were linearized as the hyperbolic function defined by Equation (2), which represents an empirical model that describes drug decomposition or release well [42]:(2) t/f%=at+b where f% is the percentage of the residual compound at time t (min) referred to the starting concentration at time zero determined by reading the absorbance at λmax.

[2] = Keto-enol/diketo tautomer amounts by 1H NMR; format: physicochemical; conditions: molar percentage, MeOD-d4, 298 K
Protocol: NMR spectra were recorded by means of a Bruker Biospin FT-NMR AVANCE III HD (600 MHz) spectrometer equipped with a CryoProbe BBO H&F 5 mm in inverse detection. The nominal frequencies were 150.90 MHz for ^13C and 600.13 MHz for ^1H, respectively. For each sample, 1–5 mg were weighed and diluted up to 0.6 mL with a proper solvent in a 5 mm NMR tube; 90° pulse was calibrated for each sample, and standard NMR parameters were used to achieve quantitative results (relaxation delay, 10 s). Proton and carbon chemical shifts are given in parts per million (ppm) versus external TMS and were determined by reference to the solvent residual signals. Typical 2D homo- and heteronuclear techniques were used for assignment, i.e., ^1H,^1H COSY, ^1H,^13C HSQC, ^1H,^13C HMBC. NMR investigations of Ga^3+:L systems were performed in MeOD-d4 by adding small amounts of a Ga(NO3)3 solution (10 μL each) to 1 mM ligand solution (0.6 mL) until reaching the desired metal-to-ligand molar ratio. The complexation reaction is fast, and spectra were registered few minutes after the addition. Two-dimensional ^1H,^13C heteronuclear multiple bond correlation (HMBC) experiments (hmbcgpndqf in Bruker library) were performed via heteronuclear zero and double quantum coherence, optimized on long-range couplings (^3/4JHC = 8 Hz), with no decoupling during acquisition, and gradient pulses were used for selection. The relative percentages of the isomeric forms were estimated on the basis of the NMR data. Particularly, ^1H NMR spectra were acquired in quantitative conditions being D1 (relaxation delay) at least five times the T1 of the slowest relaxing signal of interest. The raw data were Fourier-transformed, and then the processing was performed by zero filling (SI = TD), line broadening (lb 0.3 Hz), accurate phasing and correcting the baseline. The most isolated signals were selected for integration, i.e., the vinyl protons (H-3 and H-4), and an average of the integrated area (A) of H-3 and H-4 was used for relative quantitation, according to the following equation: %Tautomeri=(A(H−3)i+(A(H−4)i)/2/∑i(A(H−3)i+(A(H−4)i)/2×100

[3] = Spectrophotometric pH titrations of ligands (protonation constants, pKa); format: physicochemical; conditions: 298 K; for pKa: aqueous solution (methanol stock diluted in water), calculated from logβ values, * = keto–enol moiety dissociation
Protocol: (§1) UV–visible spectra were recorded with a JASCO V-570 UV/Vis/NIR spectrophotometer at 298 K in the 250–600 nm spectral range employing quartz cells (1 cm optical path). To perform spectrophotometric titrations, ligands (denoted generally as L in the following) were dissolved in methanol to give a mother solution (2.50 mM), that was then diluted in water in order to obtain a final concentration of 50 μM. The metal/ligand (M:L) solutions were obtained by adding appropriate quantities of Ga(NO3)3 as methanol solutions (5–10 mM) in order to obtain the metal-to-ligand 1:1 molar ratio (L = 50 μM and V = 25 mL). For both L and M:L systems, pH (initial value of about 5) was varied by adding small amounts (<1 μL) of concentrated NaOH (4 M) up to ca. pH 11, thus to consider volume variations negligible. To evaluate the complexation ratio, constant additions of the M solution (10 µL each time, M = 10^–2 M) were dropped into the ligand solution (V = 25 mL, L = 50 μM) using a micropipette in order to reach different M:L molar ratios. A constant ionic strength (NaNO3, 0.1 M) was maintained in all experiments. Spectrophotometric investigations of iron(III) systems were performed in the same conditions; the Fe^3+ solution was freshly prepared in methanol starting from Fe(NO3)3·9H2O. The overall protonation constants (logβqr) and the overall stability constants of metal complexes (logβpqr) were evaluated from spectrophotometric data. The stability constants (βpqr), defined by the following equations:(3) pM^m++qL^l^−+rH^+⇌MpLqHr(mp−lq+r) (4) βpqr=[MpLqHr(mp−lq+r)]/[M^m+]^p·[L^l−]^q·[H^+]^r where L is the ligand in the completely dissociated form and H is proton, were refined using least-squares calculation in HypSpec. The results of least-squares calculation include the standard deviations and correlation coefficients of the refined parameters. The quantities are obtained by performing error propagation calculation from the experimental errors onto the parameters. The stability constant refinement furnishes least-squares estimates of the standard deviation, σ, of the stability constant β. The error on logβ is calculated as follows: σ(logβ) = [log(β + σ) − log(β − σ)]/2.

[4] = Spectrophotometric pH-metric titrations of Ga^3+:ligand systems (stability constants, pGa, speciation); format: physicochemical
Protocol: as §1
Hydroxide species, such as [Ga(OH)2]^+, were taken into account for calculations. The hydrolysis constants for Ga^3+ are as follows: logβ1,1,0 = −3.93; logβ2,1,0 = −7.73; logβ3,1,0 = −12.38; logβ4,1,0 = −15.96; logβ32,13,0 = −66.3; logβ3,1,0(s) = −3.54 [43]; pGa is defined as (−log[Ga^3+]free) and is calculated at specific conditions (Ga^3+total = 1 μM, Ltotal = 10 μM, pH 7.4, 25 °C). For the calculation of the iron(III) overall stability constants, the presence of [Fe(OH)]^2+, [Fe(OH)2]^+ and [Fe(OH)3] species was taken into account.

[5] = tested on: HCT116 colon carcinoma cells; experiment: MTT cell viability assay; format: cell-based, Human; conditions: Homo sapiens, HCT-116, HCT116, 48 h of treatment, mean
Protocol: Human colorectal carcinoma HCT116 cells (#91091005, ECACC) were grown in an IMDM medium (Biowest) supplemented with 2 mM glutamine, 100 IU/mL penicillin, 100 μg/mL streptomycin and 10% FBS (Gibco). The cell lines were grown at 37 °C in a humidified incubator containing 5% CO2. The cells were verified to be mycoplasma-free and passaged < 3 months. The inhibition of cell proliferation was measured by colorimetric 3-(4,5-dimethylthiazol-2-yl)-2,5-diphenyltetrazolium bromide (MTT) assay. GI50 concentrations were determined using the CompuSyn software version 1.0 (ComboSyn, Inc., Paramus, NJ USA) (free download via www.combosyn.com, accessed on 30 May 2022), and statistical analyses were performed using the GraphPad PRISM software (version 6.01 for Windows, GraphPad Software, San Diego, California USA GraphPad Prism) using unpaired t-test. Data were considered to be statistically significant if p < 0.05 (*), p < 0.01 (**), p < 0.001(***) and p < 0.0001 (****).

[6] = cited from earlier work
transferrin = tested on: transferrin; parameters: method as in PMID 22800370; conditions: normal plasma bicarbonate concentrations; cited from earlier work
[7] = HypSpec, spectrophotometric data

Stability: percentage of the residual ligand after 4 h ([1]; PBS, pH 7.4, 37 °C in darkness, 4 h): 47% | Stability ranking (residual ligand after 4 h) ([1]; rank among the 7 ligands, 1 = most stable): 6 | KK (%) amount of diketo form [2]: 55% | KE (%) amount of keto–enol form ([2]; for 2 includes KE form of the Z isomer (6%)): 45% | logβ011 overall protonation constant [3, 7]: 10.88 (2) | logβ012 overall protonation constant [3, 7]: 20.29 (2) | logβ013 overall protonation constant [3, 7]: 28.84 (4) | pKa ([3]; read-out: pKa1): 8.55 | pKa ([3]; read-out: pKa2): 9.41 | pKa ([3]; read-out: pKa3): 10.9 | log β 112 overall stability constant (Ga^3+) ([4]; 298 K, HypSpec): 28.28 (3) | log β 124 overall stability constant (Ga^3+) ([4]; 298 K, HypSpec): 54.63 (5) | logK11 apparent formation constant (Ga^3+, M:L 1:1) ([4]; 298 K, estimated from logβMLH): 7.99 | logK12 apparent formation constant (Ga^3+, M:L 1:2) ([4]; 298 K, estimated from logβMLH): 14.05 | Prevailing Species (pH 5.5) ([4]; Ga^3+ complex species, pH 5.5): [Ga(H2L)2]^+ | Prevailing Species (pH 7.4) ([4]; Ga^3+ complex species, pH 7.4, ** possible formation of gallium hydroxide species): [Ga(H2L)2]^+ | pGa (−log[Ga^3+]free) ([4]; [Ga^3+]total = 1 μM, [L]total = 10 μM, pH 7.4, 25 °C): 20.8 | GI50 [5]: 6.21 µM
Structure (SMILES): O=C(/C=C/c1ccc(O)cc1)C(CCCN1C(=O)c2ccccc2C1=O)C(=O)/C=C/c1ccc(O)cc1 [Compound 3]

Structure (SMILES): CC(=O)N(O)CCCCCNC(=O)CCC(=O)N(O)CCCCCNC(=O)CCC(=O)N(O)CCCCCN [DFOB]
pGa [6]: 21.6

Structure (SMILES): [Fe+3] [Fe^3+]
log K1 binding constant to transferrin (transferrin): 22.8 | log K2 binding constant to transferrin (transferrin): 21.7

Structure (SMILES): [Ga+3] [Ga^3+]
log K1 binding constant to transferrin (transferrin): 20.3 | log K2 binding constant to transferrin (transferrin): 19.3

Structure (SMILES): O=C(O)CCP(=O)(O)CN1CCN(CP(=O)(O)CCC(=O)O)CCN(CP(=O)(O)CCC(=O)O)CC1 [PrP9]
pGa [6]: 23.1
